Measurements published in publication PMC10390107, “The 4-(dimethylaminoalkyl)piperazine inhibitors of α-glucosidase: allosteric enzyme inhibition and identification of interacting chemical groups” (Turkish Journal of Chemistry, 2022).
“Also recorded” adds a separate entry of the source. Like-named read-outs stand apart in the source and are kept apart here.

Target: T1, α-glucosidase (EC 3.2.1.20) from Saccharomyces cerevisiae (Saccharomyces cerevisiae, UniProt P53341)
T1 construct: purchased Sigma Chemical Co., St. Louis, USA
Test: biochemical
Assay type: biochemical
Details: mean of quadruplet experiments ± SEM, from Dixon plots, pH 6.8, 37 °C
Method: All in vitro α-glucosidase inhibition assays were performed in a 96-well microplate format. The α-glucosidase inhibition assay reported elsewhere was customized to suit the experimental needs of the current work. The assay mixture contained 50 mM sodium phosphate buffer (pH 6.8), 20 mU of α-glucosidase (EC 3.2.1.20) from Saccharomyces cerevisiae (Sigma Chemical Co., St. Louis, USA), and 1.0 mM of p-nitrophenyl-α-D-glucopyranoside (PNP-G) substrate. All target compounds were dissolved in DMSO with the assay mixture containing DMSO at a final concentration of 3%. […] The reaction was continuously monitored at 400 nm in SpectraMax Plus 384® microplate reader (Molecular Devices, CA, USA). […] All assays were performed as four individual experiments out of which the values of mean and standard error of mean (SEM) were calculated.
The enzyme kinetics assay procedure was essentially the same as mentioned above except that it was specifically designed for the kinetic work. […] The type of inhibition was calculated from the Lineweaver-Burk plots which was further confirmed by the Dixon plot using Grafit 7.0.3 software (Erithacus Software Ltd., Staines, UK). The Ki values were also calculated from their respective Dixon plots. All kinetic experiments were conducted in quadruplicate from which mean Ki values and the SEM were calculated.

T1 sequence (P53341 whole entry): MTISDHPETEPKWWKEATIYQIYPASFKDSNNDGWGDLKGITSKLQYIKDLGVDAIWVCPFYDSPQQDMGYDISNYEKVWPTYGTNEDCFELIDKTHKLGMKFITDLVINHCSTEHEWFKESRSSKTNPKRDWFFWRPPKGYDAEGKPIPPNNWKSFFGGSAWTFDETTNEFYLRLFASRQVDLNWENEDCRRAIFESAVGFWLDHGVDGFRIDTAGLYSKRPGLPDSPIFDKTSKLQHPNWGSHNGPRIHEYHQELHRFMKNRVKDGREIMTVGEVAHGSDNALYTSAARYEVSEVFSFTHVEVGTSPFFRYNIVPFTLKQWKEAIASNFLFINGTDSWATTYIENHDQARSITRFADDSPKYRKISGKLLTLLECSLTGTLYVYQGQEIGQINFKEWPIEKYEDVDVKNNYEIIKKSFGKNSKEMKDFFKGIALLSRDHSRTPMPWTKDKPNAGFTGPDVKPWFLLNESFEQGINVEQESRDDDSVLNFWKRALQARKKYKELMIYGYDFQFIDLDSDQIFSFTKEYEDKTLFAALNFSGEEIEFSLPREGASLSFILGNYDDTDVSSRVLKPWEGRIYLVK

Ki (read-out: Ki) [µM] | SMILES | Ki
5.75 ± 0.2 | CN(C)CCCN1CCN(C(=S)SCCCC(=O)c2ccc(Cl)cc2)CC1 [PC1] | 
 | CN(C)CCCN1CCN(C(=S)SCCC(=O)c2ccccc2)CC1 [PC9] | no inhibitory activity; also recorded: Inactive
